Data reported in US20050070603A1, “Use of glycerides to alleviate symptoms of digestive disorders” (priority 2003, published 2005).

Tested on: Irritable Bowel Syndrome symptoms (pain associated with intestinal gas, bloating and constipation)
Assay: Case report: patient suffering from IBS taking MCT orally
Assay type: in vivo, human
Experimental: Over a period of 8 weeks, the patient increased the dose of MCT to approx. 15 mL (in approx. 240 mL of soymilk) per day to achieve complete symptomatic relief from IBS.

## Caprylic triglyceride [Neobee 895]
After 10 months of use of MCT
  change in HDL, LDL and triglyceride levels: no noticeable change
Continued use, approx. 1 year
  adverse effects on continued use: without any adverse effects
  continued relief from IBS symptoms: complete relief from the IBS symptoms
initially, one teaspoon (approx. 5 mL) MCT as emulsion in soymilk (approx. 240 mL) per day, one patient
  improvement of IBS symptoms: some improvement
One tablespoon (approx. 15 mL) MCT per day, oral, in approx. 240 mL soymilk, dose increased over 8 weeks, one patient
  relief of IBS symptoms: complete relief of the symptoms
